Paper PMC9292215 (Clinical Pharmacology and Therapeutics, 2021)

Experiment: Plasma pharmacokinetics of BIA 10-2474 and metabolites
Format: in vivo, human
Conditions: for AUC(0-t) / Cmax / Tmax / clearance / half-life / AUC(0-inf) / concentration at 10 day / AUC: human, plasma, oral; for AUC(0-t): AUC0–t; for clearance: CL; for AUC: AUC0–τ
[1] = both, 100 mg, single dose 100 mg
[2] = 2.5 mg, 2.5 mg once daily, Day 1
[3] = 2.5 mg, 2.5 mg once daily, Day 10
[4] = 10 mg, 10 mg once daily, Day 10
[5] = 20 mg, 20 mg once daily, Day 10

For `CN(C(=O)n1cnc(-c2ccc[n+]([O-])c2)c1)C1CCCCC1` [BIA 10-2474, 3-(1-(cyclohexyl(methyl)carbamoyl)-1H-imidazol-4-yl)pyridine 1-oxide], the AUC(0-t) (both, 5 mg, single dose 5 mg) was 693 ng·h/mL, the Cmax (both, 5 mg, single dose 5 mg) was 85.4 ng/mL and the Tmax (both, 5 mg, single dose 5 mg) was 2 h. It also gave a clearance (both, 40 mg, single dose 40 mg) of 116 mL/min, a half-life (both, 40 mg, t1/2, single dose 40 mg) of 7.84 h and a Tmax (both, 40 mg, single dose 40 mg) of 2 h. It also gave an AUC(0-inf) (both, 100 mg) of 23200 ng·h/mL, an AUC(0-t) [1] of 23000 ng·h/mL and a clearance [1] of 75.2 mL/min. For the same compound, the Cmax [1] was 1770 ng/mL, the half-life (both, 100 mg, t1/2, single dose 100 mg) was 9.13 h and the Tmax [1] was 2 h. It also gave a half-life (both, drug half-life in plasma) of 6 to 10 h, a half-life (both, mean terminal elimination half-life, Day 10) of 8 to 10 h and a concentration at 10 day (2.5 mg) of 6.24 ng/mL. It also gave an AUC(0-t) [2] of 384 ng·h/mL, an AUC [2] of 397 ng·h/mL and an AUC [3] of 526 ng·h/mL. For the same compound, the clearance [2] was 98.3 mL/min, the clearance [3] was 81.5 mL/min and the Cmax [2] was 46 ng/mL. It also gave a Cmax [3] of 52.6 ng/mL, a half-life (2.5 mg, t1/2, 2.5 mg once daily, Day 1) of 6.73 h and a half-life (2.5 mg, t1/2, 2.5 mg once daily, Day 10) of 8.04 h. For the same compound, the Tmax [2] was 2 h, the Tmax [3] was 2 h and the AUC(0-inf) (5 mg) was 752 ng·h/mL. It also gave a concentration at 10 day (5 mg) of 10.8 ng/mL, an AUC(0-t) (5 mg, 5 mg once daily, Day 1) of 695 ng·h/mL and an AUC (5 mg, 5 mg once daily, Day 1) of 708 ng·h/mL. For the same compound, the AUC (5 mg, 5 mg once daily, Day 10) was 909 ng·h/mL, the clearance (5 mg, 5 mg once daily, Day 1) was 125 mL/min and the clearance (5 mg, 5 mg once daily, Day 10) was 101 mL/min. For the same compound, the clearance (5 mg, single dose 5 mg) was 114 mL/min, the Cmax (5 mg, 5 mg once daily, Day 1) was 76.2 ng/mL and the Cmax (5 mg, 5 mg once daily, Day 10) was 85.7 ng/mL. For the same compound, the half-life (5 mg, t1/2, 5 mg once daily, Day 1) was 6.4 h, the half-life (5 mg, t1/2, 5 mg once daily, Day 10) was 7.87 h and the half-life (5 mg, t1/2, single dose 5 mg) was 6.57 h. It also gave a Tmax (5 mg, 5 mg once daily, Day 1) of 2 h, a Tmax (5 mg, 5 mg once daily, Day 10) of 2 h and an AUC(0-inf) (10 mg) of 1610 ng·h/mL. For the same compound, the concentration at 10 day (10 mg) was 31.9 ng/mL, the AUC(0-t) (10 mg, 10 mg once daily, Day 1) was 1390 ng·h/mL and the AUC(0-t) (10 mg, single dose 10 mg) was 1440 ng·h/mL. For the same compound, the AUC (10 mg, 10 mg once daily, Day 1) was 1390 ng·h/mL, the AUC [4] was 2200 ng·h/mL and the clearance (10 mg, 10 mg once daily, Day 1) was 116 mL/min. For the same compound, the clearance [4] was 80.3 mL/min, the clearance (10 mg, single dose 10 mg) was 112 mL/min and the Cmax (10 mg, 10 mg once daily, Day 1) was 143 ng/mL. The Cmax [4] was 190 ng/mL, the Cmax (10 mg, single dose 10 mg) was 146 ng/mL and the half-life (10 mg, t1/2, 10 mg once daily, Day 1) was 7.12 h. It also gave a half-life (10 mg, t1/2, 10 mg once daily, Day 10) of 9.09 h, a half-life (10 mg, t1/2, single dose 10 mg) of 7.01 h and a Tmax (10 mg, 10 mg once daily, Day 1) of 2 h. It also gave a Tmax [4] of 2 h, a Tmax (10 mg, single dose 10 mg) of 3 h and an AUC(0-inf) (20 mg) of 4170 ng·h/mL. For the same compound, the concentration at 10 day (20 mg) was 69.2 ng/mL, the AUC(0-t) (20 mg, 20 mg once daily, Day 1) was 2980 ng·h/mL and the AUC(0-t) (20 mg, single dose 20 mg) was 4070 ng·h/mL. For the same compound, the AUC (20 mg, 20 mg once daily, Day 1) was 2980 ng·h/mL, the AUC [5] was 4650 ng·h/mL and the clearance (20 mg, 20 mg once daily, Day 1) was 100 mL/min. It also gave a clearance [5] of 72.2 mL/min, a clearance (20 mg, single dose 20 mg) of 81.2 mL/min and a Cmax (20 mg, 20 mg once daily, Day 1) of 290 ng/mL. The Cmax [5] was 396 ng/mL, the Cmax (20 mg, single dose 20 mg) was 308 ng/mL and the half-life (20 mg, t1/2, 20 mg once daily, Day 1) was 7.74 h. For the same compound, the half-life (20 mg, t1/2, 20 mg once daily, Day 10) was 10.2 h, the half-life (20 mg, t1/2, single dose 20 mg) was 8.7 h and the Tmax (20 mg, 20 mg once daily, Day 1) was 1.5 h. It also gave a Tmax [5] of 2 h, a Tmax (20 mg, single dose 20 mg) of 2 h and an AUC(0-t) (50 mg, 50 mg once daily, Day 1) of 7770 ng·h/mL. It also gave an AUC (50 mg, 50 mg once daily, Day 1) of 7770 ng·h/mL, a clearance (50 mg, 50 mg once daily, Day 1) of 94.7 mL/min and a Cmax (50 mg, 50 mg once daily, Day 1) of 667 ng/mL. For the same compound, the half-life (50 mg, t1/2, 50 mg once daily, Day 1) was 8.67 h, the Tmax (50 mg, 50 mg once daily, Day 1) was 2 h and the “time to steady state” value (once-daily administration, visual inspection of Ctrough) was 5 to 6 days. For the same compound, the V/F (single dose 1.25 mg) was 87.8 (30.4) L, the V/F (single dose 2.5 mg) was 79.0 (29.0) L and the V/F (single dose 5 mg) was 64.6 (23.0) L. The V/F (single dose 10 mg) was 66.9 (29.8) L, the V/F (single dose 20 mg) was 61.3 (19.0) L and the V/F (single dose 40 mg) was 73.2 (28.3) L. The V/F (single dose 100 mg) was 57.0 (16.3) L and the “decrease of exposure in the presence of food” value (single oral 40 mg) was ~ 15%.
